From patent publication US8889878B2, “Haloalky-substituted amides as insecticides and acaricides” (Bayer CropScience AG, priority 2009, dated 2014)

What was measured:
[1] = logP by HPLC on reverse-phase column (EEC Directive 79/831 Annex V.A8); type: physicochemical; settings: HPLC-MS
Procedure: The logP values reported in the above Tables and Preparation Examples were determined according to EEC Directive 79/831 Annex V.A8 by HPLC (High Performance Liquid Chromatography) on a reverse-phase column (C18). Temperature 43° C.

[2] = tested on: mustard beetle (Phaedon cochleariae); test: Phaedon test (PHAECO spray treatment), Example 7; type: in vivo; settings: application rate 20 g/ha, china cabbage leaf discs sprayed, after 7 days
Procedure: Phaedon Test (PHAECO Spray Treatment)
(§1) • Solvent: 78.0 parts by weight of acetone • 1.5 parts by weight of dimethylformamide • Emulsifier: 0.5 part by weight of alkylaryl polyglycol ether
To prepare an active ingredient formulation, 1 part by weight of active ingredient is mixed with the stated amounts of solvent and emulsifier, and the concentrate is diluted with emulsifier-containing water to the desired concentration. Leaf discs from china cabbage (Brassica pekinensis) are sprayed with an active ingredient formulation of the desired concentration and, after drying, populated with larvae of the mustard beetle (Phaedon cochleariae).
After 7 days, the efficacy in % is determined. 100% means that all beetle larvae were killed; 0% means that no beetle larvae were killed.

[3] = tested on: green peach aphid (Myzus persicae); test: Myzus test (MYZUPE spray treatment), Example 17; type: in vivo; settings: china cabbage leaf discs sprayed, after 6 days
Procedure: Myzus Test (MYZUPE Spray Treatment)
• Solvent: 78 parts by weight of acetone • 1.5 parts by weight of dimethylformamide • Emulsifier: 0.5 part by weight of alkylaryl polyglycol ether
To prepare an appropriate active ingredient formulation, 1 part by weight of active ingredient is mixed with the stated amounts of solvent and emulsifier, and the concentrate is diluted with emulsifier-containing water to the desired concentration. Leaf discs from china cabbage (Brassica pekinensis) infested by all stages of the green peach aphid (Myzus persicae) are sprayed with an active ingredient formulation of the desired concentration.
After 6 days, the efficacy in % is determined. 100% means that all aphids were killed; 0% means that no aphids were killed.

Boophilus microplus = Boophilus microplus test (BOOPMI injection), Example 11; type: in vivo; settings: application rate 20 μg/animal, injected into abdomen, after 7 days
Procedure: Boophilus microplus Test (BOOPMI Injection) • Solvent: dimethyl sulphoxide To prepare an appropriate active ingredient formulation, 10 mg of active ingredient are mixed with 0.5 ml of solvent and the concentrate is diluted with solvent to the desired concentration. The active ingredient solution is injected into the abdomen (Boophilus microplus), and the animals are transferred to dishes and stored in a climate-controlled room. The efficacy was assessed by the number of fertile eggs laid. After 7 days, the efficacy in % is determined. 100% means that none of the ticks has laid any fertile eggs.

[4] = tested on: red spider mite (Tetranychus urticae); test: Tetranychus test, OP-resistant (TETRUR spray treatment), Example 8; type: in vivo; settings: application rate 20 g/ha, common bean leaf discs sprayed, after 6 days
Procedure: Tetranychus Test, OP-resistant (TETRUR Spray Treatment)
as §1
To prepare an active ingredient formulation, 1 part by weight of active ingredient is mixed with the stated amounts of solvent and emulsifier, and the concentrate is diluted with emulsifier-containing water to the desired concentration.
Leaf discs from the common bean (Phaseolus vulgaris) infested by all stages of the red spider mite (Tetranychus urticae) are sprayed with an active ingredient formulation of the desired concentration.
After 6 days, the efficacy in % is determined. 100% means that all spider mites were killed; 0% means that no spider mites were killed.

[5] = tested on: armyworm (Spodoptera frugiperda); test: Spodoptera frugiperda test (SPODFR spray treatment), Example 15; type: in vivo; settings: application rate 100 g/ha, maize leaf discs sprayed, after 7 days
Outline: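 Maize leaf discs sprayed with active ingredient in acetone/DMF with alkylaryl polyglycol ether emulsifier, diluted in water, then populated with caterpillars after drying. Efficacy in % after 7 days: 100% all caterpillars killed, 0% none.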

SMILES | logP [1] | efficacy in % [2] [%] | efficacy in % ([3]; application rate 500 g/ha) [%] | efficacy in % (fertile eggs laid) (Boophilus microplus) [%] | efficacy in % [4] [%] | efficacy in % [5] [%] | efficacy in % ([3]; application rate 100 g/ha) [%]
O=C(/C=C/c1ccc(C(=O)NCc2ccccn2)c(Cl)c1)NC(c1cccc(C(F)(F)F)c1)C(F)(F)F (centres unmarked) [Ia-21] | HPLC-MS: logP = 2.75; mass | 100 | 100 | 100 | – | – | –
O=C(/C=C/c1ccc(C(=O)NCc2ccccn2)c(C(F)(F)F)c1)NC(c1cccc(C(F)(F)F)c1)C(F)(F)F (centres unmarked) [Ia-36] | HPLC-MS: logP = 2.75; mass | – | – | 100 | 100 | – | –
O=C(/C=C/c1ccc(C(=O)Nc2ccc(F)cc2)c(C(F)(F)F)c1)NC(c1cccc(C(F)(F)F)c1)C(F)(F)F (centres unmarked) [Ia-48] | HPLC-MS: logP = 3.89; mass | 100 | – | – | 90 | – | –
O=C(/C=C/c1ccc(C(=O)NCc2ccncc2)c(C(F)(F)F)c1)NC(c1cccc(C(F)(F)F)c1)C(F)(F)F (centres unmarked) [Ia-49] | HPLC-MS: logP = 2; mass | – | – | – | 90 | – | –
O=C(/C=C/c1ccc(C(=O)NCc2cccnc2)c(C(F)(F)F)c1)NC(c1cccc(C(F)(F)F)c1)C(F)(F)F (centres unmarked) [Ia-50] | HPLC-MS: logP = 2.23; mass | – | – | – | 100 | – | –
COC(CNC(=O)c1ccc(/C=C/C(=O)NC(c2cccc(C(F)(F)F)c2)C(F)(F)F)cc1C(F)(F)F)OC (centres unmarked) [Ia-51] | HPLC-MS: logP = 3.18; mass | 100 | – | – | 90 | – | –
O=C(/C=C/c1ccc(C(=O)NCC2CCCO2)c(C(F)(F)F)c1)NC(c1cccc(C(F)(F)F)c1)C(F)(F)F (centres unmarked) [Ia-52] | HPLC-MS: logP = 3.27; mass | – | – | – | 100 | – | –
O=C(/C=C/c1ccc(C(=O)NC2CC2F)c(C(F)(F)F)c1)NC(c1cccc(C(F)(F)F)c1)C(F)(F)F (centres unmarked) [Ia-65] | HPLC-MS: logP = 3.33; mass | 100 | – | – | 90 | – | –
O=C(/C=C/c1ccc(C(=O)NCc2ccnc(Cl)c2)c(C(F)(F)F)c1)NC(c1cccc(C(F)(F)F)c1)C(F)(F)F (centres unmarked) [Ia-66] | HPLC-MS: logP = 3.41; mass | 100 | – | – | 90 | – | –
O=C(/C=C/c1ccc(C(=O)N(C2CCOCC2)C2CC2)c(C(F)(F)F)c1)NC(c1cccc(C(F)(F)F)c1)C(F)(F)F (centres unmarked) [Ia-67] | HPLC-MS: logP = 3.77; mass | 100 | 90 | – | – | – | –
CCOC1(NC(=O)c2ccc(/C=C/C(=O)NC(c3cccc(C(F)(F)F)c3)C(F)(F)F)cc2C(F)(F)F)CC1 (centres unmarked) [Ia-68] | HPLC-MS: logP = 3.52; mass | 100 | – | – | 100 | – | –
O=C(/C=C/c1ccc(C(=O)NCc2ccccc2F)c(C(F)(F)F)c1)NC(c1cccc(C(F)(F)F)c1)C(F)(F)F (centres unmarked) [Ia-74] | HPLC-MS: logP = 3.77; mass | 100 | – | – | 90 | – | –
O=C(/C=C/c1ccc(C(=O)NCc2ccc(F)cn2)c(Br)c1)NC(c1cccc(C(F)(F)F)c1)C(F)(F)F (centres unmarked) [Ia-90] | HPLC-MS: logP = 3.23 mass | 100 | – | – | 80 | – | –
O=C(/C=C/c1ccc(C(=O)Nc2ccccn2)c(Br)c1)NC(c1cccc(C(F)(F)F)c1)C(F)(F)F (centres unmarked) [Ia-92] | HPLC-MS: logP = 3.47 mass | 100 | – | – | 80 | – | –
CC(NC(=O)c1ccc(/C=C/C(=O)NC(c2cccc(C(F)(F)F)c2)C(F)(F)F)cc1Br)C1CC1 (centres unmarked) [Ia-93] | HPLC-MS: logP = 3.42 mass | 100 | – | – | 90 | – | –
CN(C(=O)c1ccc(/C=C/C(=O)NC(c2cccc(C(F)(F)F)c2)C(F)(F)F)cc1Br)C1CC1 (centres unmarked) [Ia-95] | HPLC-MS: logP = 3.58 mass | 100 | – | – | 80 | – | –
CCOC1(NC(=O)c2ccc(/C=C/C(=O)NC(c3cccc(C(F)(F)F)c3)C(F)(F)F)cc2Cl)CC1 (centres unmarked) [Ia-96] | HPLC-MS: logP = 3.47 mass | 100 | – | – | 80 | – | –
Cc1cc(/C=C/C(=O)NC(c2cccc(C(F)(F)F)c2)C(F)(F)F)ccc1C(=O)Nc1ccc(F)cc1 (centres unmarked) [Ia-99] | HPLC-MS: logP = 3.78 mass | 100 | – | – | 80 | – | –
O=C(/C=C/c1ccc(C(=O)Nc2ccncc2)c(Cl)c1)NC(c1cccc(C(F)(F)F)c1)C(F)(F)F (centres unmarked) [Ia-113] | HPLC-MS: logP = 1.92 mass | 100 | – | – | 100 | – | –
O=C(/C=C/c1ccc(C(=O)NCc2ncccn2)c(C(F)(F)F)c1)NC(c1cccc(C(F)(F)F)c1)C(F)(F)F (centres unmarked) [Ia-127] | HPLC-MS: logP = 3.05; mass | – | – | 100 | – | 100 | 90
C#CC(C)NC(=O)c1ccc(/C=C/C(=O)NC(c2cccc(C(F)(F)F)c2)C(F)(F)F)cc1C(F)(F)F (centres unmarked) [Ia-138] | HPLC-MS: logP = 3.58; mass | – | – | 100 | – | 100 | 80
O=C(/C=C/c1ccc(C(=O)NC(CF)CF)c(C(F)(F)F)c1)NC(c1cccc(C(F)(F)F)c1)C(F)(F)F (centres unmarked) [Ia-143] | HPLC-MS: logP = 3.48; mass | – | – | 100 | – | 100 | 100
CC(C)NC(=O)c1ccc(/C=C/C(=O)NC(c2cccc(C(F)(F)F)c2)C(F)(F)F)cc1Cl (centres unmarked) [Ia-150] | HPLC-MS: logP = 3.5; mass | – | – | 100 | – | – | 100
O=C(/C=C/c1ccc(C(=O)NCc2ncccn2)c(Cl)c1)NC(c1cccc(C(F)(F)F)c1)C(F)(F)F (centres unmarked) [Ia-153] | HPLC-MS: logP = 2.94; mass | – | – | 100 | – | – | 100
CC(NC(=O)c1ccc(/C=C/C(=O)NC(c2cccc(C(F)(F)F)c2)C(F)(F)F)cc1Cl)c1ccccn1 (centres unmarked) [Ia-154] | HPLC-MS: logP = 3.45; mass | – | – | 100 | – | – | 90
O=C(/C=C/c1ccc(C(=O)NCC(F)F)c(Cl)c1)NC(c1cccc(C(F)(F)F)c1)C(F)(F)F (centres unmarked) [Ia-156] | HPLC-MS: logP = 3.34; mass | – | – | 100 | – | 100 | 100
COCC(C)NC(=O)c1ccc(/C=C/C(=O)NC(c2cccc(C(F)(F)F)c2)C(F)(F)F)cc1Cl (centres unmarked) [Ia-164] | HPLC-MS: logP = 3.33; mass | – | – | 100 | – | – | 100
